# Patent US12729225B2, “Non-canonical SWI/SNF complex and uses thereof” (Dana-Farber Cancer Institute, Inc., priority 2018, dated 2026)
# Several values for one entry are separate records, joined by “and”; a condition that tells them apart may be missing. Equal entries are not always repeated. Entries after “also recorded” stand apart in the source; their conditions may differ.
# How the values were obtained:
# [1] = system: TTC1240 malignant rhabdoid tumor cells; assay: Proliferation curves (cell counts) in TTC1240 cells; assay type: cell-based, human; settings: for Proliferation curve data for FIG. 6H (TTC1240): three replicates
# Procedure: (§1) HEK-293T, G401, TTC1240, ESX, IMR-90, BJ Fibroblast, CRL7250, and NCIH-1437 cells were grown in DMEM (Gibco®) supplemented with 10% FBS, 1% GlutaMAX™ (Gibco®), and 1% penicillin-streptomycin (Gibco®). ES-2 cells were grown in McCoy's 5A (Gibco®) supplemented with 10% FBS, 1% GlutaMA™ (Gibco®), and 1% penicillin-streptomycin (Gibco®). EoL-1 and MOLM-13 were grown in RPMI (Gibco) supplemented with 10% FBS, 1% GlutaMAX™ (Gibco®), and 1% penicillin-streptomycin (Gibco®). RD were cultured in DMEM (Gibco®) supplemented with 10% FBS. HCT116 were grown in McCoy's 5A (Gibco®) supplemented with 10% FBS. Calu-6 were grown in EMEM (ATCC® 30-2003) supplemented with 10% FBS. SYO-1 was grown in DMEM without sodium pyruvate (Gibco®) supplemented with 10% FBS, 1% GlutaMAX™ (Gibco®), and 1% penicillin-streptomycin (Gibco®).
# (§2) 25,000-40,000 cells were plated per well of 12 well plates, or 50,000-60,000 per 10 cm plate, depending on cell line. Cell counts were performed in biological triplicate using a Vi-CELL™ XR Cell Counter (Beckman Coulter) on days indicated.
# SMARCA4 [2] = assay: ChIP-seq SMARCA4 occupancy in MOLM-13 cells; assay type: cell-based, human; settings: MOLM13 (BAF-intact), dBRD9
# Procedure: (§3) Cells were fixed in 1% formaldehyde (Sigma Aldrich, F8775) for 10 min at 37° C. and quenched with 125 mM glycine for 5 min at 37° C. Cells were subsequently washed with cold PBS and stored at −80° C. until use. 10M cells per ChTP were used for EoL-1, MOLM-13, and Jurkat cell lines, and 5M cells per ChIP were used for SYO-1 and TTC1240 cell lines. Nuclei were extracted and chromatin was sonicated using the adaptive focused acoustics technology with a Covaris sonicator. Sonicated chromatin was used in immunoprecipitation reactions with indicated antibodies (Table 5) overnight followed by capture using Protein G Dynabeads (Thermo Fisher). For ChIP-seq using spike-in chromatin, 15 ng of spike-in Drosophila chromatin (Active Motif, cat #530830) was added to each sample with 2 μg of spike-in antibody (Active Motif, cat #61686). […]
# (§4) For alignment of ChIP-seq data, Bowtie2, version 2.1.0 (Langmead & Salzberg (2012) Nat. Methods 9:357-359) was used to map reads to the hg19 human reference genome, using the parameter −k l.
# MACS2 (Zhang et al. (2008) Genome Biol. 9:R137) version 2.1.0 was used to call peaks against input with a cutoff of q=0.001. […] For TTC1240 SMARCA4 tracks shown, the bedGraph file values were multiplied by the spike-in normalization ratios calculated as described above.
# G401 MRT cells = assay: Proliferation curves (cell counts) in G401 cells; assay type: cell-based, human; settings: for Proliferation curve data for FIG. 5K (G401): three replicates
# Procedure: as §1, §2
# MOLM-13 cells = assay: RNA-seq gene expression in MOLM-13 cells; assay type: cell-based, human; settings: MOLM-13 (BAF-intact), 6 days of dBRD9
# Procedure: (§5) RNA was collected from 2 million cells per condition, in biological duplicate, using the RNeasy® Mini Kit (QIAGEN) according to manufacturer's protocol.
# (§6) Library preparation and sequencing of ChIP DNA and RNA was performed by the Molecular Biology Core Facilities at the Dana-Farber Cancer Institute (75 bp single end on Illuminia Nextseq 500).
# (§7) RNA-seq data reads were mapped using default parameters to hg19 using STAR (Dobin, et al. (2013) Bioinformatics 29:15-21) version 2.5.2a.
# (§8) RPKM values were calculated using GFOLD version 1.1.4 (Feng et al. (2012) Bioinformatics 28:2782-2788). Unless otherwise noted, log 2 fold change and Bonferri-corrected p values were generated using DESEQ2 v1.16.1, with reads mapped using RSUBREAD (Liao et al. (2013) Nucleic Acids Res. 41:e108) v1.26.1. […] All RNA-seq experiments were performed in biological replicate. Quality control metrics are available in Table 7.
# [3] = system: SYO-1 synovial sarcoma cells; assay: Proliferation curves (cell counts, Vi-CELL XR) in SYO-1 cells; assay type: cell-based, human; settings: for cell count: three replicates
# Procedure: as §1
# ShRNA or gene delivery vectors, psPAX2, and pMD2.g were transfected into […] cells at a ratio of 4:3:1 using PEI (Polysciences, Inc.). Media was filtered through 0.4 micron filters 72 h post transfection and lentiviral particles were concentrated at 20,000 rpm for 2.5 h at 4° C. Lentiviral particles were resuspended in 200 μl PBS and cells were transduced using 1:1000 polybrene (Santa Cruz Biotechnology, cat. sc-134220). Two days post-infection, cells were selected with 2 μg/mL puromycin or 10 μg/mL blasticidin.
# as §2
# [4] = system: TTC1240 malignant rhabdoid tumor cells; assay: RNA-seq gene expression in TTC1240 cells; assay type: cell-based, human; settings: TTC1240, 7 days of 250 nM dBRD9
# Procedure: as §5, §6, §7, §8
# Genes associated with MRT superenhancers were downloaded from Chun et al. (Chun et al. (2016) Cancer Cell 29:394-406). Differential expression files of genes between MRT and normal tissues were downloaded from Chun et al., genes that were overexpressed in MRT with Bonferroni-adjusted p-value<0.01 were considered overexpressed in MRT.
# [5] = system: SYO-1 synovial sarcoma cells; assay: RNA-seq gene expression profiling in SYO-1 cells; assay type: cell-based, human; settings: SYO-1, dBRD9 (6 day)
# Procedure: as §5, §6, §7, §8
# (§9) The input for Gene Set Enrichment Analysis (GSEA) (Subramanian et al. (2005) Proc. Nat. Acad. Sci. U.S.A 102:15545-15550) was created by calculating the log 2 fold change between the mean RPKM of the replicates in each condition+1. […] GSEA Preranked was run over these files with default settings.
# SMARCA4 [6] = assay: ChIP-seq SMARCA4 occupancy in TTC1240 cells (spike-in normalized, DiffBind); assay type: cell-based, human; settings: TTC1240, dBRD9 250 nM vs DMSO
# Procedure: as §3, with “Fisher).” for “Fisher). For ChIP-seq using spike-in chromatin, 15 ng of spike-in Drosophila chromatin (Active Motif, cat #530830) was added to each sample with 2 μg of spike-in antibody (Active Motif, cat #61686).”
# as §4
# For spike-in normalization, Drosophila DNA was aligned to the dm3 genome using Bowtie2 version 2.1.0 with the parameter −k l. Duplicated reads were removed using samtools rmdup with the −b option. (SAMtools v1.3.1) As per manufacturer instructions, normalization ratios were calculated using the ratio of the total number of non-redundant mapped reads in each sample in comparison to the sample with the fewest non-redundant mapped reads. […]
# [7] = system: ESX epithelioid sarcoma (SMARCB1-intact) cells; assay: Proliferation curves (cell counts) in ESX cells; assay type: cell-based, human; settings: dBRD9 250 nM vs DMSO
# Procedure: as §1, §2
# [8] = system: CRL7250 human fibroblast cells; assay: RNA-seq of SS18-SSX-mediated gene activation in CRL7250 fibroblasts; assay type: cell-based; settings: CRL7250 fibroblasts expressing V5-SS18-SSX1, with dBRD9
# Procedure: as §5, §6, §7, §8, §9
smiles,measurement,setting,value
"COc1cc(-c2cn(C)c(=O)c3cnccc23)cc(OC)c1CN(C)CC(=O)NCCOCCOCCNc1cccc2c1C(=O)N(C1CCC(=O)NC1=O)C2=O (centres unmarked) [dBRD9, 2-((2,6-dimethoxy-4-(2-methyl-1-oxo-1,2-dihydro-2,7-naphthyridin-4-yl)benzyl)(methyl)amino)-N-(2-(2-(2-((2-(2,6-dioxopiperidin-3-yl)-1,3-dioxoisoindolin-4-yl)amino)ethoxy)ethoxy)ethyl) acetamide]",Proliferation curve data for FIG. 6H (TTC1240),"[1]; Day 1, first block",0.01352 and 0.01738 and 0.01416
same,Proliferation curve data for FIG. 6H (TTC1240),"[1]; Day 1, second block",0.05469 (2×) and 0.03282
same,Proliferation curve data for FIG. 6H (TTC1240),"[1]; Day 3, first block",0.03024 and 0.04118 and 0.0296
same,Proliferation curve data for FIG. 6H (TTC1240),"[1]; Day 3, second block",0.2709 and 0.2793 and 0.2619
same,Proliferation curve data for FIG. 6H (TTC1240),"[1]; Day 5, first block",0.05791 and 0.06311 and 0.0534
same,Proliferation curve data for FIG. 6H (TTC1240),"[1]; Day 5, second block",0.9207 and 0.9419 and 0.9374
same,Proliferation curve data for FIG. 6H (TTC1240),"[1]; Day 7, first block",0.1853 and 0.2336 and 0.1628
same,Proliferation curve data for FIG. 6H (TTC1240),"[1]; Day 7, second block",2.184 and 2.334 and 2.133
same,proliferation upon dBRD9 treatment,"[1]; TTC1240 (SMARCB1-deficient MRT), dBRD9 250 nM vs DMSO",reduced proliferation
same,loss in SMARCA4 occupancy (ChIP-seq),SMARCA4 [2],did not exhibit similar loss
same,Proliferation curve data for FIG. 5K (G401),"G401 MRT cells; Day 1, first block",0.04568 and 0.02188 and 0.02252
same,Proliferation curve data for FIG. 5K (G401),"G401 MRT cells; Day 1, second block",0.1114 and 0.1126 and 0.1094
same,Proliferation curve data for FIG. 5K (G401),"G401 MRT cells; Day 3, first block",0.1287 (2×) and 0.1558
same,Proliferation curve data for FIG. 5K (G401),"G401 MRT cells; Day 3, second block",0.48 and 0.5096 and 0.442
same,Proliferation curve data for FIG. 5K (G401),"G401 MRT cells; Day 5, first block",0.453 and 0.5533 and 0.4292
same,Proliferation curve data for FIG. 5K (G401),"G401 MRT cells; Day 5, second block",1.005 and 1.058 and 0.9696
same,Proliferation curve data for FIG. 5K (G401),"G401 MRT cells; Day 7, first block",0.7669 and 0.9773 and 0.8281
same,Proliferation curve data for FIG. 5K (G401),"G401 MRT cells; Day 7, second block",1.468 and 1.621 and 1.556
same,proliferation upon dBRD9 treatment,"G401 MRT cells; G401 (SMARCB1-deficient MRT), dBRD9 250 nM vs DMSO",reduced proliferation
same,preferential downregulation of genes enriched for dependencies (CERES),MOLM-13 cells,did not result in preferential downregulation
same,cell count,"[3]; Day 0, second block",0.05
same,cell count,"[3]; Day 1, first block",0.03089 and 0.03603 and 0.03282
same,cell count,"[3]; Day 4, first block",0.1506 and 0.1319 and 0.1377
same,cell count,"[3]; Day 4, second block",0.171 and 0.18 and 0.216
same,cell count,"[3]; Day 6, first block",0.2722 and 0.3153 and 0.2555
same,cell count,"[3]; Day 7, second block",0.36 (2×) and 0.42
same,cell count,"[3]; Day 8, first block",0.5521 and 0.5701 and 0.5147
same,cell count,"[3]; Day 10, second block",1.17 and 1.38 and 1.14
same,cell count,"[3]; Day 13, second block",2.3 and 2.21 and 2.13
same,cell proliferation upon dBRD9 treatment,"[3]; SYO-1, dBRD9 500 nM (FIG. 6F) vs DMSO",attenuation of cell proliferation; also recorded: proliferative attenuation
same,"expression of JUND, VGF, ID3, HOXC9, CREB3L1",[4],significantly downregulated
same,expression of genes closest to fusion-dependent sites,[5],did not change
same,SMARCA4 occupancy (ChIP-seq),SMARCA4 [6],significant decrease
same,reduced proliferation upon dBRD9 treatment,[7],did not
same,SS18-SSX-mediated gene activation,[8],did not attenuate
